From US11299515B2, “Optimized peptides for targeting human nerves and their use in image guided surgery, diagnostics and therapeutic” (The Regents of the University of California, priority 2017, dated 2022)
Residues, ends and D or L forms follow the SMILES beside them. *: point of attachment. Fluorescein(5-Mal) = O=C1OC2(c3ccc(O)cc3Oc3cc(O)ccc32)c2ccc(N3C(=O)CC(*)C3=O)cc21

Assays:
[1] = test system: human laryngeal nerve; experiment: Dose response by topical application on human laryngeal nerve sections; assay type: binding
Description: FIG. 25: Differential binding of nerve binding peptides to human and mouse tissue. Determination of optimal dose response by topical application of FAM-HNP401 on human laryngeal nerve sections at final concentration of 375 μM (A), 100 μM (B), 50 μM (C), 10 μM (D) and 1 μM (E), imaged with confocal microscopy with identical parameters and levelled equally for comparison. ** brightened 2 fold for viewing. Nerve to muscle contrast at high concentration of 375 μM for FAM-NP41 (F and G) and FAM-HNP401 (H and I) imaged on confocal microscopy and levelled for direct comparison. Mouse facial nerve (red arrows) with surrounding muscle treated with 375 μM (J), 100 μM (K) of FAM-NP41 or 375 μM (L), 100 μM (M) of FAMHNP401.
Dose response data set of FAM-HNP401 on human nerve tissue (FIG. 25:A-E) was acquired with 488 nm laser line, 10μm sections on glass at 10× magnification, 0.45 NA air objective lens. Gain set to 40, power set to 3% of laser power, pixel dwell value of 1.2 μs, aperture size of 1.1 μm and a pixel size of 0.3 μm/px with a 2 k by 2 k size image.
Human sural nerve, antebrachial nerve and laryngeal nerve and temporalis muscle were obtained under IRB protocol number 130837 for Dr. Quyen Nguyen. Human peripheral nerves (typically sural) were obtained from patients undergoing nerve resection procedures. […]

[2] = test system: human sural nerve; experiment: Topical application of FAM-labelled peptides on human nerve sections; assay type: binding
From the text: To determine the affinity of phage selected peptides for binding to human nerve they were chemically synthesized by solid-phase synthesis and labeled with fluorescein at the C-terminus via a GGC linker. Peptides were topically applied to sectioned human sural nerve and human temporalis muscle to determine nerve to muscle contrast. […] To confirm binding and contrast of HNP401 for additional nerve types binding was compared in nerve and muscle with both HNP401 and NP41 on facial brachial plexus nerve (FIG. 9). […] FAM-HNP401 was additionally tested topically on ex-vivo tissue for labeling of mouse facial nerve with surrounding muscle (FIG. 10, J-M).
To test the affinity of selected phage display peptides for binding to human nerves, they were chemically synthesized by solid-phase synthesis and labeled with fluorescein at the C-terminus. Peptides were topically applied to sections of surgically harvested human sural nerve and temporalis muscle to determine nerve to muscle contrast for selected peptides and controls (FIG. 23). […] To quantify differential binding to nerve versus muscle, fluorescence signal intensity was measured for ROIs from the perineurium of select nerves and human temporalis muscle.
Human sural nerve, antebrachial nerve and laryngeal nerve and temporalis muscle were obtained under IRB protocol number 130837 for Dr. Quyen Nguyen. Human peripheral nerves (typically sural) were obtained from patients undergoing nerve resection procedures. Human nerves from prostate gland of two patients were acquired under Moores Cancer Centre Biorepository IRB protocol number 090401. Tissue were sectioned and mounted on glass slides or Cryojane tape. Tissue sections were placed in a humidifier chamber for 30 min before application of the peptide solution. Peptides were diluted to appropriate concentration in 0.5×HBSS prior to topical application. 50 μl of peptide solution of with known concentration (1 μM to 375 μM) were applied to 10 μm nerve sections on tape or slides and incubated for 30 minutes in a humidifier chamber. After incubation with peptide nerve sections were washed with twice with 0.5×HBSS and once with 1×PBS. A cover-slip was applied and slides were imaged immediately on either a Zeiss Lumar dissecting scope of Nikon A1 confocal microscope. For confocal imaging tissue sections of 10 μm thickness were imaged with 488 nm laser excitation 515 (25) and a 10× air objective and a […] size. For immunohistochemistry the confocal Images were acquired with a 20× air objective at 0.4 μm/pixel.
Image J was used to analyze and compare images acquired using the confocal microscope and the Lumar dissecting scope. For each experimental set where probes were compared, we kept the acquisition parameters identical so as to directly compare the data obtained. […] All raw image files for a given experimental cohort were loaded at the same time into Image J as 16-bit tiff images. We then levelled the image for tissue treated with FAM-HNP401. Once these levels were set, the settings are propagated to all images in one step using Image J. The brightest image is set as the benchmark for all other images in the cohort to avoid saturating when the leveling is propagated.

With `CC(=O)N[C@@H](CO)C(=O)NCC(=O)N[C@@H](CCC(N)=O)C(=O)N[C@H](C(=O)N1CCC[C@H]1C(=O)N[C@@H](Cc1c[nH]c2ccccc12)C(=O)N[C@@H](CCC(=O)O)C(=O)N[C@@H](CCC(=O)O)C(=O)N1CCC[C@H]1C(=O)N[C@@H](Cc1ccc(O)cc1)C(=O)N[C@@H](Cc1ccc(O)cc1)C(=O)N[C@H](C(=O)N[C@H](C(=O)N[C@@H](CCCCN)C(=O)N[C@@H](CCCCN)C(=O)N[C@@H](CO)C(=O)N[C@@H](CO)C(=O)NCC(=O)NCC(=O)N[C@@H](CSC1CC(=O)N(c2ccc3c(c2)C(=O)OC32c3ccc(O)cc3Oc3cc(O)ccc32)C1=O)C(N)=O)C(C)C)C(C)C)C(C)C` (stereo partly shown) [FAM-HNP401] (Ac-SGQVPWEEPYYVVKKSSGGC(Fluorescein(5-Mal))-NH2; N-terminus and C-terminus assumed) the “concentration giving optimal nerve contrast” value ([1]; topical 1 to 375 μM) was 50 to 100 µM, the “concentration at which signal from human nerve saturates” value ([1]; topical up to 375 μM) was at most 100 µM and the “fluorescent signal intensity compared to FAM-NP41” value ([2]; 100 μM topical, human sural nerve) was 10.9 ×. The “fluorescent signal intensity (ROIs of perineurium)” value ([2]; 100 μM topical, n=4) was 1374.44±425.96, the “binding / contrast among peptides and controls screened on human nerve” value ([2]; 100 μM topical, sural nerve and temporalis muscle) was “highest contrast” and the “Nerve to muscle contrast” value ([2]; human sural nerve vs human temporalis muscle, 100 μM topical, n=4) was 3.03±0.57. For the same compound, the “signal for binding human nerve compared to FAM-NP41” value ([2]; topical, human nerve) was 10 fold.
